Test results published in patent publication US20070129307A1, “Insulin epitopes for the treatment of type 1 diabetes” (The University of British Columbia, priority 2001, published 2007).
“Also recorded” adds a separate entry of the source. One block for each substance: values may come before it.

How the values were obtained:
HLA-A*0201 [1] = molecular target: T1, HLA-A*0201 (Homo sapiens, UniProt P04439, D140Y/D185E/D98H/E176V/E277Q/G131W/G231S/I119V/I121R/I166T/I218V/L300P/L318F/N151K/N90K/P208A/P217A/Q86G/Q94H/R138H/R169H/T345S); test: Temporal stability (dissociation) of peptide/HLA-A*0201 complexes on T2 cells; format: binding; details: in 4 hours at 37° C., T2 cells with emetine, normalized to CMV/HLA-A2
T1 construct: cell membrane stabilization of the HLA-A2 molecule in TAP-deficient 174×CEM.T2 cells; endogenous in cells; host or cells: 174×CEM.T2 (T2) cells, TAP-deficient
Experimental: The stability of complexes formed with the peptides and HLA-A2 on T2 cells was assessed, over a 4-hour period at 37° C. After peptide removal and addition of emetine to inhibit protein synthesis, T2 cells were cultured at 37° C. and the HLA-A2 expression was determined at different incubation times using anti-HLA-A2 antibody. The stability of the various peptide/HLA-A2 complexes were then normalized relative to that observed for CMV/HLA-A2 complexes set as 100%.
The temporal stability of peptide/HLA-A*0201 complexes was assessed as previously described (Valmori, supra). Briefly, T2 cells were cultured with synthetic peptides overnight at room temperature as performed for peptide binding assay. The following day, after removing peptide and adding emetine (10^−4 M; Sigma-Aldrich, Oakville, Ontario, Canada) to block protein synthesis, cells were incubated at 37° C. for the indicated time periods. At each time point, an aliquot of cells was washed and stained with FITC-conjugated anti-HLA-A2 monoclonal antibody (BB7.2). Surface HLA-A2 expression was assessed by flow cytometry (FACSCalibur) and MFI was recorded. The CMV peptide was used as a positive control. Results are expressed as relative complex stability =100×[(MFI with given peptide—MFI without peptide)/(MFI with CMV peptide—MFI without peptide)].

[2] = test system: HLA-A2 restricted CD8+ T cells (PBMC); details: for T cell responses in diabetic patients and controls: non-diabetic and non-HLA matched controls
H-2Kd = molecular target: T2, H-2Kd (Mus musculus, UniProt P01902); test: MHC class I stabilization assay on RMAS-Kd cells (FACS); format: binding; details: background without peptide 6.07%
T2 construct: expressed in transfected cells; host or cells: RMAS (TAP-deficient murine cell line) transfected with H-2Kd
T2 sequence (P01902 22-368): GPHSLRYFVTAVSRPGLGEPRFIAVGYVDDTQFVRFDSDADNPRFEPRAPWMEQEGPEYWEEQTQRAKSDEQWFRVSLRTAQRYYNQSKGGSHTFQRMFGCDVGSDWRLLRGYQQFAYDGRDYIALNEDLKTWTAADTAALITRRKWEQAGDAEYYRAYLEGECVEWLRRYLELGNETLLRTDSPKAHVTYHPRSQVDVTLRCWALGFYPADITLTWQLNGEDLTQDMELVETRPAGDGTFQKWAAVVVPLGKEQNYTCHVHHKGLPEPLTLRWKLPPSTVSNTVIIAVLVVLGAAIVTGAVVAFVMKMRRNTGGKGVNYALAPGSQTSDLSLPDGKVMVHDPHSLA
T2 sequence (P01887 21-119 partner): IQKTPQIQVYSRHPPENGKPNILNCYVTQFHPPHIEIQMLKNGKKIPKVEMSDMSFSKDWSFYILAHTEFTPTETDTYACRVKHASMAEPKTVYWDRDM
Experimental: A peptide (for example, TUM, V7, INSL, TV1, TV2, or TV3) is added and the cells are incubated at room temperature for 1 hour, and then incubated at 37° C. for 3 hours. The cells are washed 3 times with 0.3% bovine serum albumin-phosphate buffer solution (BSA-PBS), and then stained with fluorescently labelled anti-mouse H-2Kd-FITC antibody. Fluorescent-activated cell sorting (FACS) analysis is performed to count the percentage of cells showing positive staining.
FACS analysis was performed to quantify the percentage/proportion of antigen presenting cells (RMAS-Kd) that express stable MHC class I on their cell surface, in association with the TV1 peptide. RMAS-Kd is a transporter for antigen presentation (TAP)-deficient RMAS cell line transfected with the mouse MHC class I molecule, H-2Kd. Because the cell line is TAP deficient it cannot assemble MHC class I (in this case H-2Kd) complexes stably but requires surface stabilisation by exogenous peptides that can bind with the H-2Kd heavy chain and beta-2 microglobulin. The cell line was stained for MHC class I expression with or without TV1 peptide.

[3] = test system: murine autoreactive T cells (NOD spleen cells); test: Interferon-gamma ELISPOT with NOD spleen cells; format: cell-based, mouse
Text: The effector cells (CTL) of the ELISPOT assay are contained within spleen cells from NOD mice aged 10 weeks. The spleens from these mice contain a proportion of autoreactive CTL destined to destroy pancreatic beta cells.
The peptide NRP-V7 was used as a positive control and is a previously described synthetic autoepitope (automimotope) of NOD mice (Amrani et al., 2000). NRP-V7 was not derived from any endogenous mammalian protein sequence but was identified by screening combinatorial peptide libraries. The peptide TUM was used as a negative control. TUM is derived from an endogenous tumour peptide not known to participate in type 1 diabetes but known to bind to the MHC class I molecule, H-2Kd.

NOD mice = test: Peptide immunisation of NOD mice, diabetes onset; format: in vivo, mouse; details: by week 18; 100 μg peptide intraperitoneally from 3 weeks of age; diabetic = two consecutive blood sugars >15 mM
Experimental: Peptides are administered to female NOD mice in accordance with standard laboratory methods.
Three groups of NOD mice (n=10 per group, purchased from Taconic, Germantown, N.Y., U.S.A.) were immunised beginning at three weeks of age with 100 μg of TUM, NRP-A7, or TV1 (MTV-1) peptide in PBS solution, intraperitoneally once per week for two weeks, then once every two weeks. Mice were monitored for hyperglycaemia weekly and considered to be diabetic after two consecutive blood sugars >15 mM.

[4] = test system: human autoreactive T cells (PBMC); test: Interferon gamma ELISPOT of PBMC from type 1 diabetes patients (Example 5); format: cell-based; details: 1 μM peptide, PBMC 20,000 per well, recent onset type 1 diabetes patients, FIG. 8
HLA-A*0201 [5] = molecular target: T1, HLA-A*0201; test: FACS assay of peptide binding to HLA-A2 on T2 cells (Example 6)
[6] = test system: autoreactive T cells in NOD pancreatic islets; test: Interferon-gamma ELISPOT with T cells of NOD pancreatic islets; format: cell-based, mouse; details: FIG. 5
[7] = test system: CTL from pancreatic islets of NOD mice; test: H-2Kd tetramer staining of NOD islet cells; format: cell-based, mouse; details: H-2Kd tetramers, islet cells ex vivo or after in vitro culture, FIG. 12
Text: MHC class I tetramers (for example, H-2Kd tetrameric complexes) are synthesised as previously described by Altman et al. (Science 274:94-96, 1996). MHC heavy chain, modified by the addition of a C-terminal biotinylation site, and beta 2 microglobulin are expressed separately in E. coli (BL21, Stratagene, La Jolla, Calif., U.S.A.). Peptides were synthesized synthesised on a Perkin-Elmer-ABI 431A by the NAPS Unit, University of British Columbia, BC, Canada. Purified heavy chain, beta 2 microglobulin and peptide are refolded at 4° C. for 48 hours in a TRIS-based buffer, and the refolded product is concentrated, biotinylated using BirA enzyme (Avidity, Denver, Colo., U.S.A.) in the presence of biotin, ATP and Mg++ and purified by FPLC. Streptavidin-phycoerythrin conjugate is added in a 1:4 molar ratio and the tetrameric product is concentrated to approximately 1 mg/ml. The tetramer concentration is calculated based upon the concentration of biotinylated protein, quantified by Bradford assay, prior to addition of streptavidin.
Single cell suspensions of lymphocytes are incubated with 1 μl of a 1 mg/ml solution of MHC tetramer for 2-3 hours at 4° C. in FACS staining buffer (HBSS/FBS 2%/Sodium Azide 0.01%/EDTA 100 mM). The cells are centrifuged and washed three times before staining with antibody to CD8. […]

proportion of H-2Kd on the surface of the APC in the presence of peptide (H-2Kd): 64%
Substance: KLPAVLLIL (mTV-1 peptide epitope) [TV1]
recognition by murine autoreactive T cells (interferon-gamma secretion) ([3]; FIG. 1): recognise | recognition by murine autoreactive T cells (interferon-gamma secretion) ([3]; FIG. 1, listed as TV-1): high frequency of CTL that recognise TV-1 | immunized mice considered diabetic (NOD mice): 80%

binding to HLA-A2 (HLA-A*0201 [5]; FIG. 11, listed as HTV 1): bind to HLA-A2 | binding to HLA-A2 (HLA-A*0201 [5]; FIG. 11, listed as HTV1): binds
Substance: KLQVFLIVL (HTV-1 peptide epitope) [IAPP5]
recognition by human autoreactive T cells (interferon-gamma ELISPOT) [4]: elevated HTV1 autoreactivity; also recorded: recognise

dissociation of peptide/HLA-A2 complexes (HLA-A*0201 [1]): about 20%
Substance: RLLCALTSL [IGRP293]
T cell responses in diabetic patients and controls ([2]; second study): could not be detected

proportion of H-2Kd on the surface of the APC in the presence of peptide (H-2Kd): 70%
Substance: RLLPLLALL (mouse insulin derived peptide) [TV3]

More lines, now with the values behind:

Substance: ALWMRLLPL [Insulin2]
dissociation of peptide/HLA-A2 complexes (HLA-A*0201 [1]): about 20% | non-diabetic control subjects that responded ([2]; second study): three of the five

Substance: DLMGYIPLV [HCV, reference compound]
subjects responding to the peptide ([2]; first study, all subjects): None of the subjects responded

Substance: GMAELMAGL [Phogrin331]
dissociation of peptide/HLA-A2 complexes (HLA-A*0201 [1]): about 20% | T cell responses in diabetic patients and controls ([2]; second study): could not be detected

Substance: KYNKANVFL [NRP-V7, positive control]
proportion of H-2Kd on the surface of the APC in the presence of peptide (H-2Kd): 72% | proportion of H-2Kd on the surface of the APC in the presence of peptide (H-2Kd; listed as V7): 72.71% | recognition by murine autoreactive T cells (interferon-gamma secretion) ([3]; FIG. 1): Interferon-gamma is also secreted; also recorded: recognise | interferon-gamma secretion by autoreactive T cells in NOD pancreatic islets [6]: secrete interferon-gamma

Substance: KYPAVLLIL (modified version of precursor peptide TV1 (TV2))
proportion of H-2Kd on the surface of the APC in the presence of peptide (H-2Kd): 58% | recognition by CD8+ T cells (tetramer staining) [7]: recognize

Substance: LLPPLLEHL [IA-2(180)]
T cell responses in diabetic patients and controls ([2]; second study): could not be detected

Substance: LYLVCGERG [INSL]
proportion of H-2Kd on the surface of the APC in the presence of peptide (H-2Kd): 73.68% | proportion of H-2Kd on the surface of the APC in the presence of peptide (H-2Kd; listed as INS-L): 73% | interferon-gamma secretion by autoreactive T cells in NOD pancreatic islets [6]: minimally

Substance: NRP-A7: positive control peptide; known synthetic peptide autoantigen recognized in the context of H-2Kd (KYNKANAFL; NRP-A7 peptide)
immunized mice considered diabetic (NOD mice): 20%

Substance: TUM: negative control; derived from an endogenous tumour peptide, known to bind H-2Kd (KYQAVTTTL)
proportion of H-2Kd on the surface of the APC in the presence of peptide (H-2Kd): 66% | immunized mice considered diabetic (NOD mice): none
